How the values were obtained:
Test in all cases: Test D postemergence
Type in all cases: in vivo
Details in all cases: scale 0 to 100
[1] = system: canarygrass (Phalaris minor)
Source text: (§1) Seeds of plant species selected from bluegrass (annual bluegrass, Poa annua), blackgrass (Alopecurus myosuroides), canarygrass (Phalaris minor), chickweed (common chickweed, Stellaria media), cutleaf geranium (Geranium dissectum), galium (catchweed bedstraw, Galium aparine), downy bromegrass (Bromus tectorum), field poppy (Papaver rhoeas), field violet (Viola arvensis), green foxtail (Setaria viridis), deadnettle (henbit deadnettle, Lamium amplexicaule), Italian ryegrass (Lolium multiflorum), kochia (Kochia scoparia), lambsquarters (Chenopodium album), oilseed rape (Brassica napus), pigweed (Amaranthus retroflexus), chamomile (scentless chamomile, Matricaria inodora), Russian thistle (Salsola kali), speedwell (bird's-eye speedwell, Veronica persica), spring barley (Hordeum vulgare), spring wheat (Triticum aestivum), wild buckwheat (Polygonum convolvulus), wild mustard (Sinapis arvensis), wild oat (Avenafatua), wild radish (Raphanus raphanistrum), windgrass (Apera spica-venti), winter barley (Hordeum vulgare), and winter wheat (Triticum aestivum) were planted into a silt loam soil and treated preemergence with test chemicals formulated in a non-phytotoxic solvent mixture which included a surfactant.
(§2) At the same time, these species were planted in pots containing Redi-Earth® planting medium (Scotts Company, 14111 Scottslawn Road, Marysville, Ohio 43041) comprising spaghnum peat moss, vermiculite, wetting agent and starter nutrients and treated with postemergence applications of the test chemicals formulated in the same manner. Plants ranged in height from 2 to 18 cm (1- to 4-leaf stage). Treated plants and controls were maintained in a controlled growth environment for 14 to 21 days after which time all species were compared to controls and visually evaluated. Plant response ratings, summarized in Table D, are based on a scale of 0 to 100 where 0 is no effect and 100 is complete control. A dash (-) response means no test result.

[2] = system: lambsquarters (Chenopodium album)
Source text: as §1, §2

[3] = system: bluegrass (annual bluegrass, Poa annua)
Source text: as §1, §2

[4] = system: field poppy (Papaver rhoeas)
Source text: as §1, §2

[5] = system: oilseed rape (Brassica napus)
Source text: as §1, §2

[6] = system: pigweed (Amaranthus retroflexus)
Source text: as §1, §2

[7] = system: deadnettle (henbit deadnettle, Lamium amplexicaule)
Source text: as §1, §2

[8] = system: Russian thistle (Salsola kali)
Source text: as §1, §2

[9] = system: blackgrass (Alopecurus myosuroides)
Source text: as §1, §2

[10] = system: cutleaf geranium (Geranium dissectum)
Source text: as §1, §2

[11] = system: kochia (Kochia scoparia)
Source text: as §1, §2

[12] = system: wild buckwheat (Polygonum convolvulus)
Source text: as §1, §2

[13] = system: green foxtail (Setaria viridis)
Source text: as §1, §2

[14] = system: field violet (Viola arvensis)
Source text: as §1, §2

[15] = system: wild mustard (Sinapis arvensis)
Source text: as §1, §2

[16] = system: chamomile (scentless chamomile, Matricaria inodora)
Source text: as §1, §2

[17] = system: spring wheat (Triticum aestivum)
Source text: as §1, §2

[18] = system: winter barley (Hordeum vulgare)
Source text: as §1, §2

[19] = system: winter wheat (Triticum aestivum)
Source text: as §1, §2

[20] = system: chickweed (common chickweed, Stellaria media)
Source text: as §1, §2

[21] = system: downy bromegrass (Bromus tectorum)
Source text: as §1, §2

Fc1cnc(Oc2c(F)cccc2Oc2ncc(Cl)cn2)nc1 [Compound 23]
Plant response rating, Canarygrass ([1]; 16 g ai/ha): 10
Plant response rating, Canarygrass ([1]; 31 g ai/ha): 20
Plant response rating, Canarygrass ([1]; 62 g ai/ha): 25
Plant response rating, Canarygrass ([1]; 125 g ai/ha): 55
Plant response rating, Lambsquarters ([2]; 16 g ai/ha): 10
Plant response rating, Lambsquarters ([2]; 31 g ai/ha): 30
Plant response rating, Lambsquarters ([2]; 62 g ai/ha): 60
Plant response rating, Lambsquarters ([2]; 125 g ai/ha): 60
Plant response rating, Bluegrass ([3]; 16 g ai/ha): 5
Plant response rating, Bluegrass ([3]; 31 g ai/ha): 10
Plant response rating, Bluegrass ([3]; 62 g ai/ha): 15
Plant response rating, Bluegrass ([3]; 125 g ai/ha): 35
Plant response rating, Field Poppy ([4]; 16 g ai/ha): 50
Plant response rating, Field Poppy ([4]; 31 g ai/ha): 70
Plant response rating, Field Poppy ([4]; 62 g ai/ha): 75
Plant response rating, Field Poppy ([4]; 125 g ai/ha): 80
Plant response rating, Oilseed Rape ([5]; 16 g ai/ha): 30
Plant response rating, Oilseed Rape ([5]; 31 g ai/ha): 65
Plant response rating, Oilseed Rape ([5]; 62 g ai/ha): 75
Plant response rating, Oilseed Rape ([5]; 125 g ai/ha): 95
Plant response rating, Pigweed ([6]; 16 g ai/ha): 55
Plant response rating, Pigweed ([6]; 31 g ai/ha): 60
Plant response rating, Pigweed ([6]; 62 g ai/ha): 70
Plant response rating, Pigweed ([6]; 125 g ai/ha): 90
Plant response rating, Deadnettle ([7]; 16 g ai/ha): 10
Plant response rating, Deadnettle ([7]; 31 g ai/ha): 20
Plant response rating, Deadnettle ([7]; 62 g ai/ha): 55
Plant response rating, Deadnettle ([7]; 125 g ai/ha): 70
Plant response rating, Russian Thistle ([8]; 16 g ai/ha): 0
Plant response rating, Russian Thistle ([8]; 31 g ai/ha): 5
Plant response rating, Russian Thistle ([8]; 62 g ai/ha): 10
Plant response rating, Russian Thistle ([8]; 125 g ai/ha): 15
Plant response rating, Blackgrass ([9]; 16 g ai/ha): 10
Plant response rating, Blackgrass ([9]; 31 g ai/ha): 20
Plant response rating, Blackgrass ([9]; 62 g ai/ha): 35
Plant response rating, Blackgrass ([9]; 125 g ai/ha): 55
Plant response rating, Geranium, Cutleaf ([10]; 16 g ai/ha): 25
Plant response rating, Geranium, Cutleaf ([10]; 31 g ai/ha): 45
Plant response rating, Geranium, Cutleaf ([10]; 62 g ai/ha): 45
Plant response rating, Geranium, Cutleaf ([10]; 125 g ai/ha): 65
Plant response rating, Kochia ([11]; 16 g ai/ha): 15
Plant response rating, Kochia ([11]; 31 g ai/ha): 20
Plant response rating, Kochia ([11]; 62 g ai/ha): 30
Plant response rating, Kochia ([11]; 125 g ai/ha): 50
Plant response rating, Buckwheat, Wild ([12]; 16 g ai/ha): 50
Plant response rating, Buckwheat, Wild ([12]; 31 g ai/ha): 70
Plant response rating, Buckwheat, Wild ([12]; 62 g ai/ha): 75
Plant response rating, Buckwheat, Wild ([12]; 125 g ai/ha): 75
Plant response rating, Foxtail, Green ([13]; 16 g ai/ha): 10
Plant response rating, Foxtail, Green ([13]; 31 g ai/ha): 10
Plant response rating, Foxtail, Green ([13]; 62 g ai/ha): 15
Plant response rating, Foxtail, Green ([13]; 125 g ai/ha): 20
Plant response rating, Field Violet ([14]; 16 g ai/ha): 15
Plant response rating, Field Violet ([14]; 31 g ai/ha): 60
Plant response rating, Field Violet ([14]; 62 g ai/ha): 60
Plant response rating, Field Violet ([14]; 125 g ai/ha): 70
Plant response rating, Mustard, Wild ([15]; 16 g ai/ha): 25
Plant response rating, Mustard, Wild ([15]; 31 g ai/ha): 35
Plant response rating, Mustard, Wild ([15]; 62 g ai/ha): 65
Plant response rating, Mustard, Wild ([15]; 125 g ai/ha): 95
Plant response rating, Chamomile ([16]; 16 g ai/ha): 0
Plant response rating, Chamomile ([16]; 31 g ai/ha): 0
Plant response rating, Chamomile ([16]; 62 g ai/ha): 0
Plant response rating, Chamomile ([16]; 125 g ai/ha): 5
Plant response rating, Wheat, Spring ([17]; 16 g ai/ha): 0
Plant response rating, Wheat, Spring ([17]; 31 g ai/ha): 5
Plant response rating, Wheat, Spring ([17]; 62 g ai/ha): 5
Plant response rating, Wheat, Spring ([17]; 125 g ai/ha): 10
Plant response rating, Barley, Winter ([18]; 16 g ai/ha): 0
Plant response rating, Barley, Winter ([18]; 31 g ai/ha): 5
Plant response rating, Barley, Winter ([18]; 62 g ai/ha): 5
Plant response rating, Barley, Winter ([18]; 125 g ai/ha): 5
Plant response rating, Wheat, Winter ([19]; 16 g ai/ha): 0
Plant response rating, Wheat, Winter ([19]; 31 g ai/ha): 0
Plant response rating, Wheat, Winter ([19]; 62 g ai/ha): 0
Plant response rating, Wheat, Winter ([19]; 125 g ai/ha): 0
Plant response rating, Chickweed ([20]; 16 g ai/ha): 60
Plant response rating, Chickweed ([20]; 31 g ai/ha): 70
Plant response rating, Chickweed ([20]; 62 g ai/ha): 70
Plant response rating, Chickweed ([20]; 125 g ai/ha): 80
Plant response rating, Bromegrass, Downy ([21]; 16 g ai/ha): 5
Plant response rating, Bromegrass, Downy ([21]; 31 g ai/ha): 10
Plant response rating, Bromegrass, Downy ([21]; 62 g ai/ha): 20
Plant response rating, Bromegrass, Downy ([21]; 125 g ai/ha): 25
